Experimental data taken from BindingDB's records for aid1799745 (Csar, 2012).

Biological target: T1, UDP-3-O-acyl-N-acetylglucosamine deacetylase (Aquifex aeolicus (strain VF5), UniProt O67648)
T1 sequence (O67648 whole entry): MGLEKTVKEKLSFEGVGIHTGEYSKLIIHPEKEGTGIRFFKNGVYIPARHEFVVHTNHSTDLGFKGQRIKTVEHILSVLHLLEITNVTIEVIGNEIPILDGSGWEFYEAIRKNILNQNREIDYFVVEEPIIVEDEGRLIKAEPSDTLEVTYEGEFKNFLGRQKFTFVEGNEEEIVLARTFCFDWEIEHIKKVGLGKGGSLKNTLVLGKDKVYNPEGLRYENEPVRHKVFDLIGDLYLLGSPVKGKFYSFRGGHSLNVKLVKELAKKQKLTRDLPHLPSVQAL
Assay: Thermofluor
Conditions: pH 7; 25 °C

Row | Structure (SMILES) | Kd
1 | CC1(CNC(=O)c2ccc(-c3ccccc3)cc2)NC(=O)NC1=O (stereo unspecified) [CS21] | > 100 µM
2 | CC1(CNC(=O)c2ccc(C#Cc3ccccc3)cc2)NC(=O)NC1=O (stereo unspecified) [CS22] | 93.4 µM
3 | CC1(CNC(=O)c2ccc(-c3ccc(Br)cc3)cc2)NC(=O)NC1=O (stereo unspecified) [CS23] | > 100 µM
4 | CC1(CNC(=O)c2ccc(C#CC#Cc3ccccc3)cc2)NC(=O)NC1=O (stereo unspecified) [CS243] | 63.9 µM
5 | NC[C@H](NC(=O)c1ccc(-c2ccccc2)cc1)C(=O)NO [CS249] | 0.393 µM
6 | NC[C@H](NC(=O)c1ccc(-c2ccc(Br)cc2)cc1)C(=O)NO [CS250] | 0.19 µM
7 | NC[C@H](NC(=O)c1ccc(C#CC#Cc2ccccc2)cc1)C(=O)NO [CS252] | 0.059 µM
8 | C[C@@H](O)[C@H](NC(=O)c1ccc(-c2ccccc2)cc1)C(=O)NCC1(C)NC(=O)NC1=O (stereo partly specified) [CS253] | > 100 µM
9 | C[C@@H](O)[C@H](NC(=O)c1ccc(C#Cc2ccccc2)cc1)C(=O)NCC1(C)NC(=O)NC1=O (stereo partly specified) [CS254] | > 100 µM
10 | C[C@@H](O)[C@H](NC(=O)c1ccc(C#CC#Cc2ccccc2)cc1)C(=O)NCC1(C)NC(=O)NC1=O (stereo partly specified) [CS255] | > 100 µM
11 | C[C@@H](O)[C@H](NC(=O)c1ccc(-c2ccc(Br)cc2)cc1)C(=O)NCC1(C)NC(=O)NC1=O (stereo partly specified) [CS256] | > 100 µM
12 | C[C@@H](O)[C@H](NC(=O)c1ccc(C#CC#Cc2ccccc2)cc1)C(=O)NO [CS257] | 0.008 µM
13 | C[C@@H](O)[C@H](NC(=O)c1ccc(-c2ccc(Br)cc2)cc1)C(=O)NO [CS258] | 0.033 µM
14 | C[C@@H](O)[C@H](NC(=O)c1ccc(C#Cc2ccccc2)cc1)C(=O)NO [CS259] | 0.02 µM
15 | C[C@@H](O)[C@H](NC(=O)c1ccc(-c2ccccc2)cc1)C(=O)NO [CS263] | 0.075 µM
16 | CC1(CNC(=O)[C@H](CN)NC(=O)c2ccc(-c3ccccc3)cc2)NC(=O)NC1=O (stereo partly specified) [CS264] | > 100 µM

Row | Structure (SMILES) | Kd
17 | CC1(CNC(=O)[C@H](CN)NC(=O)c2ccc(C#CC#Cc3ccccc3)cc2)NC(=O)NC1=O (stereo partly specified) [CS265] | > 100 µM
18 | CC1(CNC(=O)[C@H](CN)NC(=O)c2ccc(C#Cc3ccccc3)cc2)NC(=O)NC1=O (stereo partly specified) [CS266] | > 100 µM
19 | CC1(CNC(=O)[C@H](CN)NC(=O)c2ccc(-c3ccc(Br)cc3)cc2)NC(=O)NC1=O (stereo partly specified) [CS267] | > 100 µM
20 | O=C(NO)[C@H]1COC(c2ccc([N+](=O)[O-])cc2)=N1 [CS268] | 7.25 µM
21 | O=C(NO)[C@H]1COC(c2ccc(OCc3cccc(F)c3)c(OC(F)(F)F)c2)=N1 [CS269] | > 100 µM
22 | O=C(NO)[C@H]1COC(c2ccc(OC(F)(F)F)c(Cl)c2)=N1 [CS270] | 3.8 µM
23 | O=C(NO)[C@H]1COC(c2ccc(F)c(C(F)(F)F)c2)=N1 [CS271] | 1.03 µM
24 | O=C(NO)[C@H]1COC(c2cc3cc(F)ccc3[nH]2)=N1 [CS272] | 2.5 µM
25 | CN(C)c1ccc(C2=N[C@@H](C(=O)NO)CO2)cc1 [CS273] | > 100 µM
26 | CCCc1ccc(-c2ccc(C3=N[C@@H](C(=O)NO)CO3)cc2)cc1 [CS274] | 15.6 µM
27 | O=C(NO)c1csc(-c2ccc(OC(F)(F)F)c(Cl)c2)n1 [CS275] | 21.5 µM
28 | O=C(NO)C1=C[SiH2]C(c2ccc(F)cc2)=N1 (stereo unspecified) [CS276] | 28.5 µM
29 | O=C(NO)c1csc(-c2ccc(F)c(C(F)(F)F)c2)n1 [CS277] | 2.91 µM
30 | CN(C)c1ccc(-c2nc(C(=O)NO)cs2)cc1 [CS278] | 28.2 µM
31 | O=C(NO)[C@H]1COC(c2ccc(F)cc2)=N1 [CS279] | 11.1 µM
